Data as given in ChEMBL document CHEMBL1139325, “Discovery of targeting ligands for breast cancer cells using the one-bead one-compound combinatorial method” (J Med Chem, 2009).
The source made the active and inactive calls.

How the values were obtained:
Assay type in all cases: cell-based
K562 [1] = experiment: Decrease in binding affinity to integrin alpha3 G163A mutant expressed in human K562 cells by flow cytometry
K562 [2] = experiment: Decrease in binding affinity to integrin alpha3 D15A mutant expressed in human K562 cells by flow cytometry
K562 [3] = experiment: Decrease in binding affinity to integrin alpha3 T162F mutant expressed in human K562 cells by flow cytometry
[4] = target: Integrin alpha-V/beta-3 (Homo sapiens) (UniProt P05106+P06756); experiment: Binding affinity to integrin alphaVbeta3 expressed in human K562 cells at 1 uM for 30 mins by flow cytometry
[5] = target: T1, Integrin alpha-9 (Homo sapiens) (UniProt Q13797); experiment: Binding affinity to integrin alpha9 expressed in human K562 cells at 1 uM for 30 mins by flow cytometry
T1 sequence (whole entry): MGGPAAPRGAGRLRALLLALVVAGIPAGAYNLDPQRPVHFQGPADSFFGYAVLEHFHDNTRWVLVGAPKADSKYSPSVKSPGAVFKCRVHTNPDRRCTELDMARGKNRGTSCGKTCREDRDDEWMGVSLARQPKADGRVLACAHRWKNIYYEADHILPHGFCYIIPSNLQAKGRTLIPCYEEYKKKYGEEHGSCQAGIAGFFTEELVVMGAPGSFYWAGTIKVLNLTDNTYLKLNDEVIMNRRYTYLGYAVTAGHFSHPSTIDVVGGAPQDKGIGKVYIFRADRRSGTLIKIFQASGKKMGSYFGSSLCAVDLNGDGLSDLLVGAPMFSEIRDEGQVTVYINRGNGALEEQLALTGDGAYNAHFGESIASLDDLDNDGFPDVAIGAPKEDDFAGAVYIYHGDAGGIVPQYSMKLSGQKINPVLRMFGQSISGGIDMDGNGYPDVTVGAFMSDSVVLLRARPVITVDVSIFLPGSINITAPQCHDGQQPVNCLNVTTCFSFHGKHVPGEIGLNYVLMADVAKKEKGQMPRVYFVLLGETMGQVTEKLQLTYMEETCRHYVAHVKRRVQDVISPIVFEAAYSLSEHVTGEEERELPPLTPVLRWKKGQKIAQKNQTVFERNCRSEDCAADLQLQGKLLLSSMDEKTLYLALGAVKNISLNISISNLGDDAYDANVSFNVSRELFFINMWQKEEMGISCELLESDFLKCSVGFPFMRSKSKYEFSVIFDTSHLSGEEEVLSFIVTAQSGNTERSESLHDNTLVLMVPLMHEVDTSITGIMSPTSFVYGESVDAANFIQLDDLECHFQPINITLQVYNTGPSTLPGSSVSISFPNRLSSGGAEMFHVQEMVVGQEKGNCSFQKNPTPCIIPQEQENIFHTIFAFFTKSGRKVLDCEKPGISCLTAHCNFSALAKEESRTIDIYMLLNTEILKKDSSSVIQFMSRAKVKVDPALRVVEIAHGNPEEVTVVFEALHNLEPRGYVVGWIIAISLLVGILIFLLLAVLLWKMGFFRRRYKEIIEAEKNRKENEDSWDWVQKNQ

K562 [6] = experiment: Decrease in binding affinity to integrin alpha3 M164A mutant expressed in human K562 cells by flow cytometry
[7] = target: Integrin alpha-1 (Homo sapiens) (UniProt P56199); experiment: Binding affinity to integrin alpha1 expressed in human K562 cells at 1 uM for 30 mins by flow cytometry
Integrin alpha-1 (Homo sapiens), sequence (P56199 whole entry): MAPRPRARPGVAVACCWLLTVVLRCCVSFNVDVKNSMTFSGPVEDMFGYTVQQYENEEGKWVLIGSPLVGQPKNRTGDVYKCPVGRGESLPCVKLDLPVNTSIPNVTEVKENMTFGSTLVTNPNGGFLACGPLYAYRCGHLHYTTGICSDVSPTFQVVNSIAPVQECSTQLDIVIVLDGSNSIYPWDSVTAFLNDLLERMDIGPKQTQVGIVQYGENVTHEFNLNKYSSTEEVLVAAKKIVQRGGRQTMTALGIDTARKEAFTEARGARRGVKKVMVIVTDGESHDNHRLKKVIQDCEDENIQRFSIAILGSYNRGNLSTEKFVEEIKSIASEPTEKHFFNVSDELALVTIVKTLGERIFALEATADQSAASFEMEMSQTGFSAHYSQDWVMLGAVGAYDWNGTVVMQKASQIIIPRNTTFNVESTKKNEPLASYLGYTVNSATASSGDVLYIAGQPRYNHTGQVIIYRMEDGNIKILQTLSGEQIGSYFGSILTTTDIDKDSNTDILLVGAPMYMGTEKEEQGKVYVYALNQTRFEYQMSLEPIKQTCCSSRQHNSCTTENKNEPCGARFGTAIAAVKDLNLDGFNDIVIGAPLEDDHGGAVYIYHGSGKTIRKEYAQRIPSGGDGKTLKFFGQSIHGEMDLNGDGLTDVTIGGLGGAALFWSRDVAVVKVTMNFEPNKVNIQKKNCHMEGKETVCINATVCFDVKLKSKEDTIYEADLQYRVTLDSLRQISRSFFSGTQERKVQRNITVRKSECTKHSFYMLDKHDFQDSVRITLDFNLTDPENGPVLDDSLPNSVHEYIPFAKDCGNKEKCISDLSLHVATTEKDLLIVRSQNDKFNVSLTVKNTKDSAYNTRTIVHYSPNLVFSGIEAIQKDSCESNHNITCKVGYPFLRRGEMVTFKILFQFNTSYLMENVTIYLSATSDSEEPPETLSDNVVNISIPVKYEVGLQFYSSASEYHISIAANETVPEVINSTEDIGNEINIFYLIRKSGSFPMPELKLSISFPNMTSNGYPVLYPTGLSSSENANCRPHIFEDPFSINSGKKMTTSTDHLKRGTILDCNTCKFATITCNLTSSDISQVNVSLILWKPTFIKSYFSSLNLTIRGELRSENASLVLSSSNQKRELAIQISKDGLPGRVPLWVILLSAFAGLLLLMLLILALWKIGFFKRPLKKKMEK

[8] = target: Integrin alpha-5 (Homo sapiens) (UniProt P08648); experiment: Binding affinity to integrin alpha5 in human K562 cells at 1 uM for 30 mins by flow cytometry
Integrin alpha-5 (Homo sapiens), sequence (P08648 42-894 limits assumed): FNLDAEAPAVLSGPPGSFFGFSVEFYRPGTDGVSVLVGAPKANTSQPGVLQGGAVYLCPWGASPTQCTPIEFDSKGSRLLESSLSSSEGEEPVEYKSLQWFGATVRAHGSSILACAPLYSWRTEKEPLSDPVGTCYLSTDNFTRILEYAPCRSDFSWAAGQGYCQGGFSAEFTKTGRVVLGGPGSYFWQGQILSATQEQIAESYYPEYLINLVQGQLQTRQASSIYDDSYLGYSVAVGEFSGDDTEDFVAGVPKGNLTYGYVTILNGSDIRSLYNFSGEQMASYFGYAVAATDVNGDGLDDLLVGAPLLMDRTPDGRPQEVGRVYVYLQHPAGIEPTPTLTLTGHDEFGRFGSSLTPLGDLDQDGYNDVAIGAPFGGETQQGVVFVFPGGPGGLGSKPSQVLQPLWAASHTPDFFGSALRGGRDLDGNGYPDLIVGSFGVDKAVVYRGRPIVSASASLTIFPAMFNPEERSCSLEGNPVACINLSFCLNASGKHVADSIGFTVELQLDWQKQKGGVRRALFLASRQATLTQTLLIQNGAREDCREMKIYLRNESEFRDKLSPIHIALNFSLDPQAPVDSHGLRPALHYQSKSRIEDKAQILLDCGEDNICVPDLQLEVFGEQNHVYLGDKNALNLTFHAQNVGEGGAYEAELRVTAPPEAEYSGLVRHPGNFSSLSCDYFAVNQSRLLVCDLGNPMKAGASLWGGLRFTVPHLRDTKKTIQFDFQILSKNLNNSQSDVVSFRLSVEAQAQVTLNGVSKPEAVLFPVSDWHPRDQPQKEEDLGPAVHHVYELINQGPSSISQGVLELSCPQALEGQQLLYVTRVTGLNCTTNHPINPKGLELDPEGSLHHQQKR
Integrin alpha-5 (Homo sapiens), sequence (P08648 895-1049 limits assumed): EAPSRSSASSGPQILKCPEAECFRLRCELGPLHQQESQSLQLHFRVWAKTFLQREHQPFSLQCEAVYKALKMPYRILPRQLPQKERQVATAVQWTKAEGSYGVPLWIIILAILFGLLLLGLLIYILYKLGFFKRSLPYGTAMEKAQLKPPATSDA

[9] = target: T2, Integrin alpha-6 (Homo sapiens) (UniProt P23229); experiment: Binding affinity to integrin alpha6 expressed in human K562 cells at 1 uM for 30 mins by flow cytometry
T2 sequence (whole entry): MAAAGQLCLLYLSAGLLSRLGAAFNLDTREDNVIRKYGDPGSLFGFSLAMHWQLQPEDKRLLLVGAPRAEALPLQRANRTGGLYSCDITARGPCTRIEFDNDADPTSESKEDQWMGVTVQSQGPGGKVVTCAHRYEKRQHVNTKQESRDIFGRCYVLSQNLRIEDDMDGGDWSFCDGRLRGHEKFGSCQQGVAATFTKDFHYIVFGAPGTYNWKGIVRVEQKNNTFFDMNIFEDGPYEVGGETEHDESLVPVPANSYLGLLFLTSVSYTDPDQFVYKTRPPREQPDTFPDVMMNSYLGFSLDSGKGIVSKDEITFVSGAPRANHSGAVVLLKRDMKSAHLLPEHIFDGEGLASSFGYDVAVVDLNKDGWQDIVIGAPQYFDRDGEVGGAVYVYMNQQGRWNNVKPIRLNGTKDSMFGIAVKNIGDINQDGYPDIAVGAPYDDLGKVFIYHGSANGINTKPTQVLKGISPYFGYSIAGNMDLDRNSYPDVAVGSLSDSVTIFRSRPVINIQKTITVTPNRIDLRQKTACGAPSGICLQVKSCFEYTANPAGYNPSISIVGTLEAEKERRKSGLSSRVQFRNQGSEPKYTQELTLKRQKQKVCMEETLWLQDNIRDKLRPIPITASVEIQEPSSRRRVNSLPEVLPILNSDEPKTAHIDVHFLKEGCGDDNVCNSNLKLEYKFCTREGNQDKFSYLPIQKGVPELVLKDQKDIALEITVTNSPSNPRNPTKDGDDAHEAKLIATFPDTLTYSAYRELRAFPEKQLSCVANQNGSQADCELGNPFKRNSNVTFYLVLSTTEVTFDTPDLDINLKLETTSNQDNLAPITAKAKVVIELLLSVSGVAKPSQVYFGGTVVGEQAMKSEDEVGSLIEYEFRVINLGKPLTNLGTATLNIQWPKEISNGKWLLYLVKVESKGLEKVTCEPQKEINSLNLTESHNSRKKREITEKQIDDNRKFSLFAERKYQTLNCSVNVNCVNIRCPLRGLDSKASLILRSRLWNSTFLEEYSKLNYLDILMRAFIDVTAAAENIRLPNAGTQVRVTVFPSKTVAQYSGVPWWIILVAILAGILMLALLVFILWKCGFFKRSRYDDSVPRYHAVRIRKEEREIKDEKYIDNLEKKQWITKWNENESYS

[10] = target: Integrin alpha-2 (Homo sapiens) (UniProt P17301); experiment: Binding affinity to integrin alpha2 expressed in human K562 cells at 1 uM for 30 mins by flow cytometry
Integrin alpha-2 (Homo sapiens), sequence (P17301 whole entry): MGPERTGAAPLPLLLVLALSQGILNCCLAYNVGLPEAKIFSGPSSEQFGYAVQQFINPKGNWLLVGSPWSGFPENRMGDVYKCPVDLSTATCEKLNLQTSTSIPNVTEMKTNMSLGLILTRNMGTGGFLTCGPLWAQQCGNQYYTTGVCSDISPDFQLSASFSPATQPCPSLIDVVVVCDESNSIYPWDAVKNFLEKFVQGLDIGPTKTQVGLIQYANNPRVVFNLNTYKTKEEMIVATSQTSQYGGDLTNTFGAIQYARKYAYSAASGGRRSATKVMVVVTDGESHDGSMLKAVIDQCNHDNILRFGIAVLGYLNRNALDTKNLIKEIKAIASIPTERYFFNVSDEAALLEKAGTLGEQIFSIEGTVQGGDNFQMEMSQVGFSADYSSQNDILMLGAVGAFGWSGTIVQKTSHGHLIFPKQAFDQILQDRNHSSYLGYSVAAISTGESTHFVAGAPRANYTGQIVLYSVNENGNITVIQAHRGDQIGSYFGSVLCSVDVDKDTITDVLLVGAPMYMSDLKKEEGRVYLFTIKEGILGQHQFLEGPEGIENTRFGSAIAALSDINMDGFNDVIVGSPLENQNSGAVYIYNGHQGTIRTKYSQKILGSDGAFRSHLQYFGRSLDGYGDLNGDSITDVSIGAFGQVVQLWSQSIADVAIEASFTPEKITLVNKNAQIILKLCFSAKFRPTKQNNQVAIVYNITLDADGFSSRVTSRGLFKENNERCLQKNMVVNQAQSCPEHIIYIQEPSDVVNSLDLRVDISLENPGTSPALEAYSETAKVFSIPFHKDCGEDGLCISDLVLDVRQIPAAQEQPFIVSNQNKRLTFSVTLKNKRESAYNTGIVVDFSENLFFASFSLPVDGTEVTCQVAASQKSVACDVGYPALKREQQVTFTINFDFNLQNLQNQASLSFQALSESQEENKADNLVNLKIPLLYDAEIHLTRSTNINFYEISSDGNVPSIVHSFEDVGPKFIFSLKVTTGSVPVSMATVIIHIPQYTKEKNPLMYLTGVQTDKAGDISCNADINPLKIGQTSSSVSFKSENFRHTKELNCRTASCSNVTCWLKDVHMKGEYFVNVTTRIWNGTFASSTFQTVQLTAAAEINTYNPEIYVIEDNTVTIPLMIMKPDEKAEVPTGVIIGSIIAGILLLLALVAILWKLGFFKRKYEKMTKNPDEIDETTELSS

K562 [11] = experiment: Decrease in binding affinity to integrin alpha3 Y186A mutant expressed in human K562 cells by flow cytometry
[12] = target: Integrin alpha-4 (Homo sapiens) (UniProt P13612); experiment: Binding affinity to integrin alpha4 expressed in human K562 cells at 1 uM for 30 mins by flow cytometry
Integrin alpha-4 (Homo sapiens), sequence (P13612 whole entry): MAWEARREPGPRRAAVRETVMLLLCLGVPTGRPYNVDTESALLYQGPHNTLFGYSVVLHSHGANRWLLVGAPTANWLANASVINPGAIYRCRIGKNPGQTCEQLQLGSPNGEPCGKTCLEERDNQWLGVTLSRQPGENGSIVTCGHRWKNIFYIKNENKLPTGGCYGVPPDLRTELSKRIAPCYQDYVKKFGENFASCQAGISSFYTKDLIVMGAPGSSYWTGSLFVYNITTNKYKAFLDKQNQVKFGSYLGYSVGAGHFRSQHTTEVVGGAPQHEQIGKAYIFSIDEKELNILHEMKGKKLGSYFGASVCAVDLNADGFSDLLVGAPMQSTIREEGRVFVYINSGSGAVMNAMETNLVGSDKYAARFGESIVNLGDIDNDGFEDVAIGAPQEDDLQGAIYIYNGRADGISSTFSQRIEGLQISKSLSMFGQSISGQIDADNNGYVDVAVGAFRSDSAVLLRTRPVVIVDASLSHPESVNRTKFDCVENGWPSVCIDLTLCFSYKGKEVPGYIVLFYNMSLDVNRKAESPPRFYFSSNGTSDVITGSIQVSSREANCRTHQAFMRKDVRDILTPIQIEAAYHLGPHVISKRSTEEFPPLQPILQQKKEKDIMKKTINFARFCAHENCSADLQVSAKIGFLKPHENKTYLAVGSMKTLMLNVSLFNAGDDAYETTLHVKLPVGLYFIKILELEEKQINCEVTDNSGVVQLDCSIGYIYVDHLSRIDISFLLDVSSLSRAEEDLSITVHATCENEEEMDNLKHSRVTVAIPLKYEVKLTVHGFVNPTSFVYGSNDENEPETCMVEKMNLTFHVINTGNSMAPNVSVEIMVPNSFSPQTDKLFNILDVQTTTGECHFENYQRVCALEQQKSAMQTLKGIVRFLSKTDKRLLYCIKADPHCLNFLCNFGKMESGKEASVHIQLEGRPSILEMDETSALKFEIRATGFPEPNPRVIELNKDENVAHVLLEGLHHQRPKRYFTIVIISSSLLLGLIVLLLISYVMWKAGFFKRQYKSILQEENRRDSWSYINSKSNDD

K562 [13] = experiment: Decrease in binding affinity to integrin alpha3 T162A mutant expressed in human K562 cells by flow cytometry

Measured: Activity

CC(C)C[C@@H]1NC(=O)CNC(=O)[C@@H](CC(=O)O)NC(=O)[C@@H](N)CSSC[C@@H](C(N)=O)NC(=O)[C@H](CC(N)=O)NC(=O)[C@@H]2C[C@@H](O)CN2C(=O)CNC1=O
inactive: all assays above
